Measured values: publication PMC9268571, “Parabens Permeation through Biological Membranes: A Comparative Study Using Franz Cell Diffusion System and Biomimetic Liquid Chromatography” (Molecules, 2022)
Read-outs that look alike come from different tables or passages of the source.

What was measured:
[1] = IAM chromatography (phospholipophilicity) on IAM.PC.DD2; type: physicochemical; settings: 0.1 M phosphate buffer pH 5.0/acetonitrile, extrapolated to 100% aqueous phase
Experimental: (§1) Phospholipophilicity was experimentally determined using two IAM analytical columns, i.e., IAM.PC.MG (150 × 4.6 mm, 10 μm p.s., pore size: 300 Å) and IAM.PC.DD2 (150 × 4.6 mm, 10 μm p.s., pore size: 300 Å), both from Regis Chemical Company (Morton Grove, IL, USA). The analyses on the IAM.PC.MG were conducted on a LC-20 AD VP (from Shimadzu Corp., Kyoto, Japan), equipped with an ultraviolet (UV)–visible detector (Shimadzu Model SPD10 AV) set at λ = 254 nm. For the determinations on the IAM.PC.DD2, an alliance HPLC system (Waters Corporation, Milford, MA USA) with 2690/2695 separation module, 2996 PDA detector, 717 plus autosampler, and 2487 dual λ absorbance detector, was used at 254 nm wavelength instead. The methods were set, and chromatograms were recorded by Waters Empower® 3 software (Milford, MA USA). On both columns, employed eluents were 0.1 M phosphate buffer at pH 5.0 and acetonitrile at various percentages with a flow rate of 1.0 mL min^−1. All samples were dissolved in acetonitrile (ca. 10^−4 M), and chromatographic analyses were carried out at 22 ± 2 °C. The two different IAM stationary phases differ from each other in the end-capping of residual amino groups of the silica-propylamine core, which support C10 and C3 alkyl chains being end-capped by both decanoic and propionic anhydrides (IAM.PC.DD2), while IAM.PC.MG supports hydroxy groups being end-capped by methyl glycolate. […] Since all the compounds under our investigation required at least the addition of acetonitrile to the mobile phase to elute within 20 min, at least three different mobile phases containing acetonitrile in percentages (φ), ranging from 10% to 30% (v/v), were employed. All kw IAM values average at least three individual measurements, and the final values are reported as decimal logarithms.

[2] = design: method as in PubCHEM; settings: n-octanol–water; ref PubCHEM; cited from earlier work
[3] = IAM chromatography (phospholipophilicity) on IAM.PC.MG; type: physicochemical; settings: 0.1 M phosphate buffer pH 5.0/acetonitrile, extrapolated to 100% aqueous phase
Experimental: as §1

[4] = source not stated, no method described; cited from earlier work
in vitro = settings: male, pig

Row | Structure (SMILES) | logkw IAM.DD2 [1] | Log P [2] | logkw IAM.MG [3] | S (Solubility in water) [4] | further results
1 | CCCCOC(=O)c1ccc(O)cc1 [BuP, Butyl 4-hydroxybenzoate] | 2.812 | 3.57 | 1.818 | – | –
2 | O=C(OCc1ccccc1)c1ccc(O)cc1 [BzP, Benzyl 4-hydroxybenzoate] | 2.735 | 3.56 | 2.292 | 92 mg/L | –
3 | CCOC(=O)c1ccc(O)cc1 [EP, Ethyl 4-hydroxybenzoate] | 1.751 | 2.47 | 0.956 | 885 mg/L | Papp at 24 h (in vitro): 0.261 ×10⁻⁶ cm/s; Log Kp * (determined in the present study) (experimental, Franz cell, porcine ear skin): −6.58 cm/s; time to maximum passage through the porcine skin (from the beginning of the experiment): ≤ 120 min; Maximum Flux (porcine ear skin, saturated solution in PBS pH 5.0 as donor, receptor PBS pH 7.4, 37 °C, ± standard deviation): 2.35 ± 0.71 µg/cm^2/h; Permeation (%) (Median) (porcine ear skin, median, 95% interval confidence in parentheses): 0.110 (0–0.11) %
4 | COC(=O)c1ccc(O)cc1 [MP, Methyl 4-hydroxybenzoate] | 1.306 | – | 0.615 | – | –
5 | CCCOC(=O)c1ccc(O)cc1 [PrP, Propyl 4-hydroxybenzoate] | 2.267 | – | 1.339 | – | detection in receptor fluids (at any time (½–24 h), fully aqueous donor pH 5.0): not detected
6 | CC(C)COC(=O)c1ccc(O)cc1 [iBuP, Isobutyl 4-hydroxybenzoate] | 2.448 | 3.57 | 1.708 | 207 mg/L | –
7 | CC(C)OC(=O)c1ccc(O)cc1 [iPrP, Isopropyl 4-hydroxybenzoate] | 1.914 | – | 1.227 | 500 mg/L | –
8 | O=C(O)c1ccc(O)cc1 [pHBA, 4-Hydroxybenzoic acid] | < 1 | – | < 1 | – | Papp at 24 h (in vitro): 3.33 ×10⁻⁶ cm/s; Maximum Flux (male, pig): 12.68 ± 4.08 µg/cm^2/h; Permeation (%) (Median) (male, pig): 0.997 (0–1.22) %; time to maximum passage through the porcine skin (male, pig): ≤ 30 min; Log Kp * (determined in the present study) (pig): −5.48 cm/s; logkw IAM.DD2 ([1]; listed as pHB): −1.054; logkw IAM.MG ([3]; listed as pHB): −0.955
